# Values of other authors, collected in patent US5502037A, “Pro-cytotoxic drug conjugates for anticancer therapy” (priority 1993, dated 1996).
# Read-outs that look alike come from different tables or passages of the source.
# How the values were obtained:
# [1] = test system: mouse Yoshida ascites sarcoma cells; settings: for In vitro activities: Cytotoxicity: cu = cytostatic units, Yoshida ascites sarcoma cells, Brock, 1976
# [2] = NBP test, relative to NNM; taken from Brock, 1976
# tumor cells = settings: for activity as the result of in vivo metabolism: once activated / metabolized
smiles,measurement,setting,value
"C=CC=O [Acrolein, acrolein]",In vitro activities: Cytotoxicity,[1],0.4 CU/μmol
same,In vitro activities: Alkylating,[2],1.9%
same,In vivo activities: LD50,"Yoshida ascites sarcoma; lethal dose, rat, Brock, 1976",7.3 mg/kg
same,D50 Index (LD50/CD50),"Yoshida ascites sarcoma; rat, in vivo",~ 3
same,In vivo activities: CD50,"Yoshida ascites sarcoma; rat, in vivo",> 2.15 mg/kg
"O=P1(N(CCCl)CCCl)NCCCO1 (stereo not drawn) [CP, cyclophosphamide]",activity in the in vitro Yoshida cell cytotoxicity test (in words),[1]; comment on Table II,virtually inactive
same,In vitro activities: Cytotoxicity,[1],< 0.03 CU/μmol
same,In vitro activities: Alkylating,[2],1.3%
same,activity in vivo against the rat Yoshida ascites sarcoma (in words),Yoshida ascites sarcoma; comment on Table II,highly active therapeutic agent
same,In vivo activities: CD50,"Yoshida ascites sarcoma; curative dose, Yoshida ascites sarcoma in rat, Brock, 1976",1.25 mg/kg
same,D50 Index (LD50/CD50),"Yoshida ascites sarcoma; rat, in vivo",175
same,In vivo activities: LD50,"Yoshida ascites sarcoma; rat, in vivo",220 mg/kg
same,activity as the result of in vivo metabolism,tumor cells,highly cancerotoxic
same,biologic activity in vitro and in vivo before metabolism,"tumor cells; initially, in vitro and in vivo",only slight biologic activity
O=P1(NCCCl)OCCCN1CCCl (stereo not drawn) [isophosphamide],activity as the result of in vivo metabolism,tumor cells,highly cytotoxic in vivo to tumor cells once activated
